Assay results taken from patent publication US9630949B2, “Oxoazetidine derivatives, process for the preparation thereof and use thereof in human medicine and in cosmetics” (GALDERMA RESEARCH & DEVELOPMENT, priority 2008, dated 2017).

Columns and labels:
hMC1R = hMC1R (Homo sapiens (Human), UniProt Q01726); assay: Transactivation test: melanocortin receptors (pCRE-Luc luciferase reporter), hMC1R; type: cell-based; conditions: HEK293 transfected with pCRE-Luc and hMC1R; products tested alone (agonist), 6 h incubation; % activity vs NDP-MSH 10 nM; IA: inactive
Summary of the method: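 HEK293 cells carrying the pCRE-Luc reporter and hMC1R vectors were grown in DMEM with 10% foetal calf serum at 37° C., 5% CO2, then plated at 5000 cells per well in 384-well plates in serum-free DMEM overnight. Products dissolved at 10 mM in DMSO were added alone as 10-point, 4-fold dilutions from 10 μM (0.1% DMSO) and incubated 6 h. Luciferase luminescence was read on Top-Count after lysis with luciferin, normalized to NDP-MSH 10 nM (100%) and cells alone (0%), and EC50 in nM derived with XLFit.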

hMC4R = hMC4R (Homo sapiens (Human), UniProt P32245); assay: Transactivation test: melanocortin receptors (pCRE-Luc luciferase reporter), hMC4R; type: cell-based; conditions: HEK293 transfected with pCRE-Luc and hMC4R; products tested alone (agonist), 6 h incubation; % activity vs NDP-MSH 10 nM; IA: inactive
hMC4R, sequence (P32245 whole entry): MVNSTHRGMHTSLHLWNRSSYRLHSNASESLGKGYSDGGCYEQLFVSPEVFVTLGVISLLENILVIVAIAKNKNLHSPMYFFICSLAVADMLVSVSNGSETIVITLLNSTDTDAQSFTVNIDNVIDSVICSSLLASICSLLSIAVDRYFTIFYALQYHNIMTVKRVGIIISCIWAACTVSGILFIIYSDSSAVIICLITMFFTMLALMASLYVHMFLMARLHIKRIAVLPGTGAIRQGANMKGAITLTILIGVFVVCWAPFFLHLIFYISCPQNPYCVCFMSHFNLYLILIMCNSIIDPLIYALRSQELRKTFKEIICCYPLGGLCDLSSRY

hMC1R, sequence (Q01726 whole entry): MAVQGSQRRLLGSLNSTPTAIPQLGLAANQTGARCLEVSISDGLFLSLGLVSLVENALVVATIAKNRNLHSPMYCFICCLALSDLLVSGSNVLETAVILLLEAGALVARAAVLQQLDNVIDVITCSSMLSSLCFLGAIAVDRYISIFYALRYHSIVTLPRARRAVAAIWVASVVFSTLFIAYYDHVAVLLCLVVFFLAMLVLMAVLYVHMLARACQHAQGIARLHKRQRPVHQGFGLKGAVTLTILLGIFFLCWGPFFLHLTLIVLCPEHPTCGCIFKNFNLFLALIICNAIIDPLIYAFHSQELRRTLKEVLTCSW

EC50 (hMC1R): 0.015 µM
EC50 (hMC4R): 4 µM
SMILES: COc1ccc(C[C@@H](NC(=O)CCc2nc[nH]c2C)C(=O)N2CC(OCC=C(C)C)(c3ccccc3C)C2)cc1 [Compound 80, N-[(R)-1-(4-Methoxybenzyl)-2-[3-(3-methylbut-2-enyloxy)-3-o-tolylazetidin-1-yl]-2-oxoethyl)-3-(5-methyl-1H-imidazol-4-yl)propionamide]
